Tested on: IFNα-Induced STAT Phosphorylation
Test: IFNα-Induced STAT Phosphorylation in Human Whole Blood
Format: cell-based
Details: Homo sapiens, 1 h compound incubation, 1000 U/mL recombinant human IFNα A/D for 15 min, pSTAT5 in CD3 positive population, read-out: LE Human WB IFNα-Induced Stat Phosph. (IC50)
Excerpt: IFNα-Induced STAT Phosphorylation in Human Whole Blood
The amount of pSTAT5 expression was quantitated by median fluorescence intensity after gating on the CD3 positive population.

Row | IC50 | Structure (SMILES)
1 | 90 nM | [2H]C([2H])([2H])NC(=O)c1nnc(Nc2cc(Cl)n(C)n2)cc1Nc1nccc(-c2cnc(C(=O)N(C)C)cn2)c1OC [Example 92, 6-((5-Chloro-1-methyl-1H-pyrazol-3-yl)amino)-4-((4-(5-(dimethylcarbamoyl)pyrazin-2-yl)-3-methoxypyridin-2-yl)amino)-N-(methyl-d3)pyridazine-3-carboxamide]
2 | 280 nM | [2H]C([2H])([2H])NC(=O)c1cnc(Nc2cc(C)ccn2)cc1Nc1nccc(-c2nnn(C)n2)c1OC [Example 103, 4-((3-methoxy-4-(2-methyl-2H-tetrazol-5-yl)pyridin-2-yl)amino)-N-(methyl-d3)-6-((4-methylpyridin-2-yl)amino)nicotinamide]
3 | 90 nM | [2H]C([2H])([2H])NC(=O)c1cnc(NC(=O)CC)cc1Nc1nccc(-c2nnn(C)n2)c1OC [Example 105, 4-{[3-methoxy-4-(2-methyl-2H-1,2,3,4-tetrazol-5-yl)pyridin-2-yl]amino}-N—(^2H3)methyl-6-propanamidopyridine-3-carboxamide]
4 | 70 nM | [2H]C([2H])([2H])NC(=O)c1cnc(Nc2cc(C#N)ccn2)cc1Nc1nccc(-c2nnn(C)n2)c1OC [Example 106, 6-[(4-cyanopyridin-2-yl)amino]-4-{[3-methoxy-4-(2-methyl-2H-1,2,3,4-tetrazol-5-yl)pyridin-2-yl]amino}-N—(^2H3)methylpyridine-3-carboxamide]

Reference: patent US11597721B2, “Heterocyclic compounds comprising pyridine useful as modulators of IL-12, IL-23 and/or IFNα responses” (BRISTOL-MYERS SQUIBB COMPANY, priority 2018, dated 2023)
